# Assay results as given in patent publication US20050272605A1, “Method to treat seeds” (priority 2002, published 2005).
# Key:
# [1] = system: Brachiaria dictyoneura seeds; assay: Germination test of Brachiaria dictyoneura seeds after scarification and aerated nitrate treatment (Example 1); format: in vivo; settings: for % Germination 7 days (paper + water): paper substrate irrigated with water, after 7 months storage
# Procedure: The tank is filled with an approximately 0.2% solution of potassium nitrate 16 in water, to level which will ensure that the seed-containing bags are just immersed. The seeds 15 are immersed at ambient temperature for about 10 to about 36 hours, during which time the tank is constantly aerated by a flow of air form the compressed air source through the perforated pipe 12. The bags are then removed form the tank 10 and allowed to drain for about 12 hours. If the seed being treated requires addition of further agents such as gibberellic acid or smoke extract, then suitable quantities of these ingredients in solution are poured over the draining seed, and mixed by hand. The seeds are then dried to between 8% and 14% moisture content, preferably 12% moisture content, and stored as required.
# A lot of Brachiaria dictyoneura seeds were harvested manually (by cutting the panicle and sweating for six days in heaps, and then threshing) in Zapote, Pérez Zeledón, Costa Rica, in July 2000. The seeds were dried in the shade, classified to remove waste and stored at 15° C. and 60% relative humidity for six months. A 30 kg sample of this seed lot was then scarified for 30 minutes with concentrated sulphuric acid on Jan. 4, 2001. The seeds were dried to 12% moisture and then re-scarified for a further 15 minutes on Feb. 26, 2001. After the second scarification the seeds were soaked in potassium nitrate for 24 hours and drained for 12 hours by the process described above.
# Small 50 g sub-samples of the same seed lot were also taken, some of which were scarified once or twice but not treated, and some of which only received the first 30-minute scarification, but were treated. The seeds were then dried carefully in the sun until they reached the 12% moisture content. A sample of the nitrate treated, double scarified seed was tested for germination on Mar. 8, 2001, using 3 replicates of […] pure seeds on a soil-based substrate, at approximately 35° C. during the day, and 15° C. during the night, with florescent and incandescent lighting during the day (12 hours), in closed plastic germination trays. The result was 79% germination after 26 days. The four samples were then stored for a further 7 months when the following germination test was carried out on Nov. 17, 2001, using 4 replicates of 100 seeds on a paper substrate irrigated with water, and the same growth conditions described above.
# [2] = system: Brachiaria dictyoneura seeds; assay: Germination test of Brachiaria dictyoneura seeds after scarification, nitrate soaking and GA (Example 2); format: in vivo
# Excerpt: The seeds (two replicates of 100 seeds) were sown on a soil substrate with the same growth conditions described above.
# [3] = system: Brachiaria brizantha seeds; assay: Germination test of acid-scarified Brachiaria brizantha seeds on soil or paper substrate (Example 3); format: in vivo
# Procedure: Effect of nitrate on a lot of acid-scarified Brachiaria brizantha imported from Brazil in July 2001, shortly after harvesting from the soil surface, using different substrates for the germination test.
# The seeds were treated on Aug. 15, 2001 and after drying, samples were taken and tested for germination on Aug. 24, 2001. The soil substrate was maintained at the same moisture level throughout the test by weight. The paper substrate was maintained moist by irrigation from below, using a piece of plastic foam to separate the paper from the water in the base of the tray.
# [4] = system: Paspalum notatum seeds; assay: Germination of Paspalum notatum seeds, lot of 1997 (Example 4); format: in vivo, Paspalum notatum (cv. Pensacola)
# [5] = system: Paspalum notatum seeds; assay: Germination of Paspalum notatum seeds, lot of 2001 (Example 5); format: in vivo, Paspalum notatum cv Pensacola; settings: one scarification and aerated nitrate treatment
# [6] = system: Panicum maximum seeds; assay: Germination of Panicum maximum seeds (Example 6); format: in vivo, Panicum maximum cv. Tanzania; settings: scarified seeds
compound,measurement,setting,value
"O=[N+]([O-])[O-].[K+] [Nitrate, potassium nitrate]",% Germination 7 days (paper + water),"[1]; Scarified once, listed as Aerated nitrate treatment",87.25c %
same,% Germination 7 days (paper + water),"[1]; Scarified once, listed as aerated nitrate treatment",87%
same,% Germination 7 days (paper + water),"[1]; Scarified twice, listed as Aerated nitrate treatment",93.00c %
same,% Germination 7 days (paper + water),"[1]; Scarified twice, listed as aerated nitrate treatment",93%
same,germination after 26 days,"[1]; double scarified seed, soil-based substrate, tested Mar. 8, 2001",79%
same,seedling vigor,[1]; seedlings from treated seeds versus untreated,greater vigor
same,increase in germination due to nitrate treatment,[1]; seeds scarified once,30%
same,increase in germination due to nitrate treatment,[1]; seeds scarified twice,20%
same,% Germination 15 days (soil substrate),[2]; Scarification once (20 minutes),42.5b %
same,% Germination 15 days (soil substrate),[2]; Scarification twice (20 + 10 minutes),65.0c %
same,% Germination 7 days,[3]; Paper substrate,77cd %
same,% Germination 25 days,[3]; Paper substrate,82cde %
same,% Germination 7 days,[3]; Soil substrate,88de %
same,% Germination 25 days,[3]; Soil substrate,90e %
same,% Germination,[4]; Scarification 10 minutes,64.8%
same,% Germination,[4]; Scarification 20 minutes,63.5%
same,% Germination,[5],79.0%
same,% Germination,[6],50.0%
